Our source for the inhibition, Retention_time and IC50 values is ChEMBL document CHEMBL6096732 (J Med Chem, 2025).

Structures are written as SMILES.

Series [1] has as its target T1, Protein deacetylase HDAC6 (Homo sapiens) (UniProt Q9UBN7).
T1 sequence (whole entry): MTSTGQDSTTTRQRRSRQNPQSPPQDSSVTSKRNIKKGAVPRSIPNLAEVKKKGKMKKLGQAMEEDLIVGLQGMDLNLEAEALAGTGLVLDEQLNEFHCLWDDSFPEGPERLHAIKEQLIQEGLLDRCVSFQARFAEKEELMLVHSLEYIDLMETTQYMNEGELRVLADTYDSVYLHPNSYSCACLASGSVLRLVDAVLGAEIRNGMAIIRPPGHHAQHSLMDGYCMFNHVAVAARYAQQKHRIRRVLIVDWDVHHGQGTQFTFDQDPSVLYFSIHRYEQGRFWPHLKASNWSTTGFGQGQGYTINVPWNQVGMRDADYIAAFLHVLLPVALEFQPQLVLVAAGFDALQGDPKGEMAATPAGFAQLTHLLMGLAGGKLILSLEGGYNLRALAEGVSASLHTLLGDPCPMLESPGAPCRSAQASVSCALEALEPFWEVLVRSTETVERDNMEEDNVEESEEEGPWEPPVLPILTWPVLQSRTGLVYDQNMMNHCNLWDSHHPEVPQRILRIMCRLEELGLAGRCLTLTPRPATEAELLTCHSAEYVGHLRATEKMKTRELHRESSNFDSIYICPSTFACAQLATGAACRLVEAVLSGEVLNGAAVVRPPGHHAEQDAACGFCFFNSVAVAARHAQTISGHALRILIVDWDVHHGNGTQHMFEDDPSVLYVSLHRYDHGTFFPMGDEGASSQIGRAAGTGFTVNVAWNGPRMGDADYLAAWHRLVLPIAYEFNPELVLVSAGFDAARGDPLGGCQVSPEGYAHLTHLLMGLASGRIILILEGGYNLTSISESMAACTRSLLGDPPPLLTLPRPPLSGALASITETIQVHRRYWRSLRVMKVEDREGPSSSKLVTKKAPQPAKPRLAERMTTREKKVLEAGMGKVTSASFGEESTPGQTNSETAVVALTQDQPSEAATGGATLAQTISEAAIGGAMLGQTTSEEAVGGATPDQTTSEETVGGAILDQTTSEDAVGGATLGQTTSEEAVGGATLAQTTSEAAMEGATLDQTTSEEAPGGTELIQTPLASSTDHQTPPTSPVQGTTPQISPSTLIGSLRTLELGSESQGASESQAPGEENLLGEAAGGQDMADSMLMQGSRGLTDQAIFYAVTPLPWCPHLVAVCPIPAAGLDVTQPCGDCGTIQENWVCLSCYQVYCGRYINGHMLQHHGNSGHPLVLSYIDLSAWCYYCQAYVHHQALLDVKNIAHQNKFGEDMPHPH
Conditions: dose 500.0 nM, time 3.0 hrs.

A further series deals with Histone deacetylase 1 (Homo sapiens, UniProt Q13547). Particulars: dose 500.0 nM, time 3.0 hrs.
In a further series the target is Histone deacetylase 3 (Homo sapiens, UniProt O15379). Particulars: dose 500.0 nM, time 3.0 hrs.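 Further: recombinant HDAC3 enzyme with Boc-Lys(acetyl)-AMC substrate, fluorescence readout, compound preincubated 1 hr before a 2 hr reaction, inhibition expressed relative to control.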
A short description of series [2]: Retention time of compound by HPLC analysis. Type of series: physicochemical.
The target of the next series is Histone deacetylase 11 (Homo sapiens, UniProt Q96DB2). Kind of series: Inhibition of recombinant HDAC11 (unknown origin) preincubated for 1 hr followed by substrate addition and measured after 2 hrs by fluorescence based micro plate reader analysis.
A further series deals with B16-F10. Description: cells. Conditions: Mus musculus, B16-F10, 72 h. The format is functional, cell-based.
The next series concerns SK-OV-3. Kind of series: cells. Type of series: functional, cell-based. Conditions: Homo sapiens, SK-OV-3, 72 h.
In the next series the test system is HCT-116. Kind of series: cells. Type of series: functional, cell-based. Conditions: Homo sapiens, HCT-116, 72 h.
For another series, the system named is 4T1. Kind of series: cells. Type of series: functional, cell-based. Particulars: Mus musculus, 4T1, 72 h.

Histone deacetylase 3, sequence (O15379 whole entry): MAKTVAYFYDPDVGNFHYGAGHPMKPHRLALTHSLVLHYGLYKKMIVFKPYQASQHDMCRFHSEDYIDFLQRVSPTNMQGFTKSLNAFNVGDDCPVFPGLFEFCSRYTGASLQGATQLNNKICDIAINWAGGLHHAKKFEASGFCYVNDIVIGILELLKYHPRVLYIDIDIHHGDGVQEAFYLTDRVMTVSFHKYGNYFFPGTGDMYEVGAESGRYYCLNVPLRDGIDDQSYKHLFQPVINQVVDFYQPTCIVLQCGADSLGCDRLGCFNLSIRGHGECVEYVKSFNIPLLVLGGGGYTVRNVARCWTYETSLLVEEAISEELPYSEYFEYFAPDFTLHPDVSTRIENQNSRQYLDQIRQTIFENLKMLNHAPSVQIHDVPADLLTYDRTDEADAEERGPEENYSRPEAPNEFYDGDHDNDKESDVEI
Histone deacetylase 1, sequence (Q13547 whole entry): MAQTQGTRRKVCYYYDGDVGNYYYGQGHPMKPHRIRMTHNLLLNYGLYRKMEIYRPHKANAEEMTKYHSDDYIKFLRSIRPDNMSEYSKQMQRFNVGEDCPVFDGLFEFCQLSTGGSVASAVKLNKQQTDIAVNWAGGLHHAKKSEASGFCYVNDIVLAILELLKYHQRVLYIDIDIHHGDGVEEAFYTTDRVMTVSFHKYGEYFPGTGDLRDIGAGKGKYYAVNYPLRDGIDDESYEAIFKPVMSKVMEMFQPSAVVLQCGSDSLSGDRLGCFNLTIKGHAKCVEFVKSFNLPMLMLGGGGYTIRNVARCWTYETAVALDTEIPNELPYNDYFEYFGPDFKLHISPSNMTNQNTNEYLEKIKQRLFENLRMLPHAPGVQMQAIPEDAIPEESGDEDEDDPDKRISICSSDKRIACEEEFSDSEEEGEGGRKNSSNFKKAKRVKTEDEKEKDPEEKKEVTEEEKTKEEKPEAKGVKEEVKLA
Histone deacetylase 11, sequence (Q96DB2 whole entry): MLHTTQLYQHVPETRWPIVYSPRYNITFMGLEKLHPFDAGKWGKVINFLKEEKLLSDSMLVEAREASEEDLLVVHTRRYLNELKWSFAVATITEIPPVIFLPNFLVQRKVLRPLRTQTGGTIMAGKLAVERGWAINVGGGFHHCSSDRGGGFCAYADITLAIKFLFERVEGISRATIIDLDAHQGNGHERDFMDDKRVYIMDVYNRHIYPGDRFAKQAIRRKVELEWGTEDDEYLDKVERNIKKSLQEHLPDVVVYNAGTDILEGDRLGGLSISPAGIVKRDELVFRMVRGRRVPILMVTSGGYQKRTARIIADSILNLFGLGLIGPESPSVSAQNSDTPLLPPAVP
Description for B16-F10: Antiproliferative activity against mouse B16-F10 cells assessed as inhibition of cell growth incubated for 72 hrs by MTT assay
Description for HCT-116: Antiproliferative activity against human HCT-116 cells assessed as inhibition of cell growth incubated for 72 hrs by MTT assay
Description for Histone deacetylase 3: Inhibition of recombinant HDAC3 (unknown origin) using Boc-Lys(acetyl)-AMC as substrate at 500 nM preincubated for 1 hr followed by substrate addition and measured after 2 hrs by fluorescence based micro plate reader analysis relative to control
Description for SK-OV-3: Antiproliferative activity against human SK-OV-3 cells assessed as inhibition of cell growth incubated for 72 hrs by MTT assay

One may read the inhibition as the percentage by which the read-out fell short of the control. `CCCNNC(=O)c1ccc(Cn2c3ccccc3c3c(-c4cccc([N+](=O)[O-])c4)nc4ccccc4c32)cc1`: the inhibition in [1] was 18%; at Histone deacetylase 1, less than 10%; against Histone deacetylase 3 it was 47%.

As to `CCCNNC(=O)c1ccc(Cn2c3ccccc3c3c(-c4cccc(F)c4)nc4ccccc4c32)cc1`, the inhibition in [1] was less than 10%; at Histone deacetylase 1, 20%; at Histone deacetylase 3 it was 69%.

For the molecule `CCCNNC(=O)c1ccc(Cn2c3ccccc3c3c(-c4ccccc4)nc4ccccc4c32)cc1`, the inhibition is 24% in [1], less than 10% at Histone deacetylase 1 and 57% against Histone deacetylase 3.

As for `CCCNNC(=O)c1ccc(Cn2c3ccccc3c3c(-c4ccc(C#N)cc4)nc4ccccc4c32)cc1`, the values for the inhibition (in series [1]; on Histone deacetylase 1; against Histone deacetylase 3) were less than 10%, less than 10% and 33%, respectively.

Take `CC(C)CCNNC(=O)c1ccc(Cn2c3ccccc3c3c(-c4ccccn4)nc4ccccc4c32)cc1`: the inhibition (in [1]; against Histone deacetylase 1; at Histone deacetylase 3) was less than 10% throughout.

On to `CCCNNC(=O)c1ccc(Cn2c3ccccc3c3c(-c4ccc(C(=O)NNCCC)cc4)nc4ccccc4c32)cc1`, for which the inhibition in series [1] is less than 10%; on Histone deacetylase 1, less than 10%; against Histone deacetylase 3, 38%.

Take `CCCN(CCC)NC(=O)c1ccc(Cn2c3ccccc3c3c(-c4cccc(F)c4)nc4ccccc4c32)cc1`: the inhibition in [1] was less than 10%; at Histone deacetylase 1 it was 27%; against Histone deacetylase 3, 31%.

Regarding `CC(/C=C/C(=O)NO)=C\[C@@H](C)C(=O)c1ccc(N(C)C)cc1` [TRICHOSTATIN], the Retention_time in series [2] amounted to 14.7 min.

For `CCCNNC(=O)c1ccc(Cn2c3ccccc3c3c(-c4ccc(O)c(OC)c4)nc4ccccc4c32)cc1`, the inhibition is less than 10% in [1], 20% on Histone deacetylase 1 and 79% at Histone deacetylase 3.

Take `CCCCCCCNNC(=O)c1ccc(Cn2c3ccccc3c3c(-c4ccccn4)nc4ccccc4c32)cc1`: the inhibition is less than 10% in series [1], 22% on Histone deacetylase 1 and 53% on Histone deacetylase 3.

On to `CCCNNC(=O)c1ccc(Cn2c3ccccc3c3c(-c4cc(Cl)ccc4O)nc4ccccc4c32)cc1`, for which the inhibition in series [1] is 30%; on Histone deacetylase 1, 31%; at Histone deacetylase 3, 47%.

With `CCCN(CCC)NC(=O)c1ccc(Cn2c3ccccc3c3c(C4CCN(C(=O)OC(C)(C)C)CC4)nc4ccccc4c32)cc1`, the inhibition (in series [1]; on Histone deacetylase 1; against Histone deacetylase 3) was less than 10% throughout.

Consider `CCCCNNC(=O)c1ccc(Cn2c3ccccc3c3c(-c4ccccn4)nc4ccccc4c32)cc1`, for which the inhibition in series [1] was less than 10%; against Histone deacetylase 1, 35%; at Histone deacetylase 3, 92%.

As for `CCCNNC(=O)c1ccc(Cn2c3ccccc3c3c(C4CCN(C(=O)OC(C)(C)C)CC4)nc4ccccc4c32)cc1`, the inhibition is less than 10% in series [1], 22% on Histone deacetylase 1 and 73% against Histone deacetylase 3.

Turning to `CCCNNC(=O)c1ccc(Cn2c3ccccc3c3c(-c4cccc(Cl)c4)nc4ccccc4c32)cc1`, the inhibition was less than 10% in series [1], 25% against Histone deacetylase 1 and 73% against Histone deacetylase 3.

`CCCCCCCCCCNNC(=O)c1ccc(Cn2c3ccccc3c3c(-c4ccccn4)nc4ccccc4c32)cc1`: the inhibition (in series [1]; against Histone deacetylase 1; against Histone deacetylase 3) was less than 10% in each case.

For the molecule `CC(C)NNC(=O)c1ccc(Cn2c3ccccc3c3c(-c4ccccn4)nc4ccccc4c32)cc1`, the inhibition (in series [1]; at Histone deacetylase 1; on Histone deacetylase 3) was less than 10% in each case.

Take `CCCNNC(=O)c1ccc(Cn2c3ccccc3c3c(-c4cn(C)c5ccccc45)nc4ccccc4c32)cc1`: the inhibition in series [1] is less than 10%; against Histone deacetylase 1, less than 10%; at Histone deacetylase 3 it was 36%.

`CCCNNC(=O)c1ccc(Cn2c3ccccc3c3c(-c4ccncc4)nc4ccccc4c32)cc1`: the inhibition worked out at 19% in [1], 12% at Histone deacetylase 1 and 65% against Histone deacetylase 3.

Regarding `CCNNC(=O)c1ccc(Cn2c3ccccc3c3c(-c4ccccn4)nc4ccccc4c32)cc1`, the inhibition in series [1] was less than 10%; at Histone deacetylase 1 it was 11%; against Histone deacetylase 3, 32%.

As for `CCCNNC(=O)c1ccc(Cn2c3ccccc3c3c(-c4cccnc4)nc4ccccc4c32)cc1`, the results for the inhibition (in [1]; against Histone deacetylase 1; on Histone deacetylase 3) were 21%, 16% and 84%, respectively.

Regarding `CCCNNC(=O)c1ccc(Cn2c3ccccc3c3c(-c4cc(OC)ccc4O)nc4ccccc4c32)cc1`, the results for the inhibition (in series [1]; at Histone deacetylase 1; against Histone deacetylase 3) were 14%, 27% and 66%, respectively.

As to `C/C=C/CNNC(=O)c1ccc(Cn2c3ccccc3c3c(-c4ccccn4)nc4ccccc4c32)cc1`, the inhibition in series [1] is less than 10%; against Histone deacetylase 1, 39%; at Histone deacetylase 3, 91%.

For orientation: IC50 means the point on the concentration scale where inhibition reaches its midpoint. For `Nc1ccccc1NC(=O)c1ccc(CNC(=O)OCc2cccnc2)cc1` [ENTINOSTAT], the concentration for half-maximal inhibition (IC50) at Histone deacetylase 11 is greater than 10 µM; in the series on B16-F10 it was 13.9 µM; in the series with SK-OV-3, greater than 10 µM; in the series with HCT-116, 1.67 µM; with 4T1 it was 6.85 µM. Moreover, the inhibition in series [1] was 24%; against Histone deacetylase 1 it was 88%.

For the molecule `CCCCCCCCNNC(=O)c1ccc(Cn2c3ccccc3c3c(-c4ccccn4)nc4ccccc4c32)cc1`, the figures for the inhibition (in [1]; at Histone deacetylase 1; at Histone deacetylase 3) were 26%, less than 10% and 40%, respectively.

Regarding `CCCN(CCC)NC(=O)c1ccc(Cn2c3ccccc3c3c(-c4ccccn4)nc4ccccc4c32)cc1`, the inhibition was less than 10% in [1], 23% against Histone deacetylase 1 and 29% on Histone deacetylase 3.

With `CCCCCNNC(=O)c1ccc(Cn2c3ccccc3c3c(-c4ccccn4)nc4ccccc4c32)cc1`, the figures for the inhibition (in [1]; at Histone deacetylase 1; on Histone deacetylase 3) were less than 10%, 20% and 82%, respectively.

For the molecule `CCCNNC(=O)c1ccc(Cn2c3ccccc3c3c(-c4ccc(OC)cc4)nc4ccccc4c32)cc1`, the inhibition was less than 10% in [1], 29% against Histone deacetylase 1 and 58% against Histone deacetylase 3.

As to `CCCCCCCCCNNC(=O)c1ccc(Cn2c3ccccc3c3c(-c4ccccn4)nc4ccccc4c32)cc1`, the figures for the inhibition (in series [1]; against Histone deacetylase 1; at Histone deacetylase 3) were less than 10%, less than 10% and 29%, respectively.
